The text below walks through data of US10329242B2, “Process for purifying long chain amino acids” (VITAWORKS IP, LLC, priority 2017, dated 2019).

Data set [1] can be described thus: Solubility in water and aqueous solution of acetic acid. Type of data set: physicochemical. The settings on record: aqueous solution of 10% (wt/wt) acetic acid at 80° C.
Data set [2] can be described thus: Solubility of bisulfate salts in 1 M solution of sulfuric acid. The format is physicochemical. The following applies: for solubility: temperature below 40° C.; for solubility change with temperature: temperature increased from 60° C. to 80° C. and above.

The structures appear in SMILES notation. Counter-ions that a name gives are not always drawn.

Consider `NCCCCCCCCCCC(=O)O` [11-aminoundecanoic acid], for which the solubility entry in data set [1] is “up to 45 % (wt/wt)”. Further, in data set [2], the solubility entry was “negligible solubility” and the “solubility change with temperature” value is given as “drastically increased”.
`NCCCCCCCCCCCC(=O)O` [bisulfate salt of 12-aminolauric acid, 12-aminolauric acid]: in data set [2], the solubility entry is given as “negligible solubility” and the “solubility change with temperature” value is on record as “drastically increased”.
